Here are results for 34 compounds from patent publication US8304422B2, “Compositions and methods for inhibition of the JAK pathway” (Rigel Pharmaceuticals, Inc., priority 2007, dated 2012).

Broadly, the IC50 is the concentration at which inhibition is half-maximal.

This assay deals with BaF3 V617F cells; UKE-1. Kind of assay: Proliferation Assay (Cell Titer-Glo; Example 7). The format is cell-based. As to conditions: proliferation 72 hours, inhibit JAK2 activity, cell line (BaF3 V617F or UKE-1) not stated. Summed up: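 BaF3 V617F cells (RPMI, 10% FBS) and UKE-1 cells (Iscove's DMEM, 10% FBS, 10% equine serum, 1 uM hydrocortisone) were exposed to 3-fold serially diluted compound in duplicate for 72 hours at 37 °C. Viable cell number quantified by Cell Titer-Glo luminescence; IC50 reported.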
A general note: Cellular ATP, detected with luciferase, serves as a proxy for viable cell number.
For `CCN1CCN(c2ccc(Nc3ncc(C)c(Nc4ccc(CNS(=O)(=O)N(C)C)cc4)n3)cc2)CC1` [II-107, N4-[(4-(Dimethylamino)sulfonylamino)methylphenyl]-5-methyl-N2-[4-(4-ethyl-1-piperazinyl)phenyl]-2,4-pyrimidinediamine], the IC50 came out at 316 nM.

Turning to `Cc1cnc(Nc2ccc(N3CCN(C)CC3)cc2)nc1Nc1cccc(S(=O)(=O)N(C)C)c1` [I-14, N4-[(3-(1,1-Dimethylamino)sulfonyl)phenyl]-5-methyl-N2-[4-(4-methyl-1-piperazinyl)phenyl]-2,4-pyrimidinediamine], the IC50 came out at 225 nM.

On to `COc1cc(Nc2ncc(Cl)c(Nc3ccc(CNS(=O)(=O)C4CC4)cc3)n2)cc(C)c1OC` [II-199, 5-Chloro-N4-[4-(N-cyclopropylsulfonylamino)methylphenyl]-N2-[3,4-dimethoxy-5-methylphenyl]-2,4-pyrimidinediamine], for which the midpoint of inhibition, the IC50, lay at 57.2 nM.

In turn, `CN1CCC(c2ccc(Nc3ncc(Cl)c(Nc4ccc(CNS(=O)(=O)C5CC5)cc4)n3)cc2)CC1` [II-187, 5-Chloro-N4-[4-(N-cyclopropylsulfonylaminomethyl)phenyl]-N2-[4-(N-methylpiperidin-4-yl)phenyl]-2,4-pyrimidinediamine] returned a 50% inhibitory concentration (IC50) of 293 nM.

Compound `COc1c(C)cc(Nc2ncc(C)c(Nc3ccc4c(c3)[C@H](NS(C)(=O)=O)CC4)n2)cc1C` [V-10] returned an IC50 of 673 nM.

In turn, `Cc1cnc(Nc2c(C)cc(OC(C)C)cc2C)nc1Nc1ccc(CCNS(=O)(=O)C2CC2)cc1` [II-64] yielded an IC50 of 548 nM.

In the case of “5-Chloro-N4[4-(N-cyclopropylsulfonylamino)ethylphenyl]-N2-[4-(6-methoxy-2-methyl-methoxy)phenyl]-2,4-pyrimidinediamine [II-50]”, it took 472 nM to reach half-maximal inhibition (IC50).

`Cc1cnc(Nc2ccc(N3CCN(C)CC3)cc2)nc1Nc1ccc(CNS(=O)(=O)N(C)C)cc1` [II-104, N4-[(4-(Dimethylamino)sulfonylamino)methylphenyl]-5-methyl-N2-[4-(4-methyl-1-piperazinyl)phenyl]-2,4-pyrimidinediamine] showed an IC50 of 349 nM.

`Cc1cc(CNS(=O)(=O)NC2CC2)ccc1Nc1nc(Nc2ccc(N3CCN(C)CC3)nc2)ncc1Cl` [II-182, 5-Chloro-N4-[2-methyl-4-((N-cyclopropylamino)sulfonylamino)methylphenyl]-N2-[6-(4-methyl-1-piperazinyl)-3-pyridinyl]-2,4-pyrimidinediamine] yielded an IC50 of 711 nM.

Take “N4-[4-(N-cyclopropylsulfonylamino)ethylphenyl)]-5-methyl-N2-[4-(6-methoxy-2-methyl)methoxyphenyl]-2,4-pyrimidinediamine [II-66]”: it took 467 nM to reach half-maximal inhibition (IC50).

In the case of `Cc1cc(CNS(=O)(=O)C2CC2)cc(Nc2nc(Nc3ccc(N4CCN(C5CC6CCC5C6)CC4)cc3)ncc2C)c1` (stereo not shown) [II-77, N-(3-(2-(4-(4-(bicyclo[2.2.1]heptan-2-yl)piperazin-1-yl)phenylamino)-5-methylpyrimidin-4-ylamino)-5-methylbenzyl)cyclopropanesulfonamide], the IC50 came out at 1320 nM.

Take `CCNS(=O)(=O)NCc1ccc(Nc2nc(Nc3cc(C)c(OC)c(C)c3)ncc2Cl)c(C)c1` [II-142, 5-Chloro-N2-(3,5-dimethyl-4-methoxyphenyl)-N4-[2-methyl-4-(ethylaminosulfonylamino)methylphenyl]-2,4-pyrimidinediamine]: 485 nM corresponded to half-maximal inhibition (IC50).

`CCNS(=O)(=O)NCc1ccc(Nc2nc(Nc3ccc(N4CCC(F)(F)CC4)cc3)ncc2C)cc1` [II-123, N2-[4-(4,4-Difluoro-1-piperidinyl)phenyl]-N4-[(4-(ethylamino)sulfonylamino)methylphenyl]-5-methyl-2,4-pyrimidinediamine] displayed an IC50 of 373 nM.

As for `COc1c(C)cc(Nc2ncc(Cl)c(Nc3ccc4c(c3)S(=O)(=O)NCC4)n2)cc1C` [VII-1, 5-Chloro-N4-[3,4-dihydro-1,1-dioxide-2H-1,2-benzothiazin-7-yl]-N2-[3,5-dimethyl-4-methoxyphenyl]-2,4-pyrimidinediamine], the 50% inhibitory concentration (IC50) is 229 nM.

Consider `CCc1cnc(Nc2ccc(N3CCC(F)(F)CC3)cc2)nc1Nc1ccc(CNS(=O)(=O)C2CC2)cc1` [II-87, N4-[4-(N-Cyclopropylsulfonylamino)methylphenyl]-N2-[4-(4,4-difluoro-1-piperidinyl)phenyl]-5-ethyl-2,4-pyrimidinediamine], for which the IC50 worked out at 5270 nM.

On to `Cc1cc(OC(C)C)cc(C)c1Nc1ncc(Cl)c(Nc2ccc(CCNS(=O)(=O)C3CC3)cc2)n1` [II-48, 5-Chloro-N4[4-(N-cyclopropylsulfonylamino)ethylphenyl]-N2-[4-(2,6-dimethyl-isopropoxy)phenyl]-2,4-pyrimidinediamine], for which the IC50 amounted to 698 nM.

`CCS(=O)(=O)N1CCc2c(cccc2Nc2nc(Nc3ccc(N4CCN(C)CC4)cc3)ncc2Cl)C1` [VI-1, 5-Chloro-N2-[4-(4-methyl-1-piperazinyl)phenyl]-N4-[1,2,3,4-tetrahydro-2-(ethylsulfonyl)-5-isoquinolinyl]-2,4-pyrimidinediamine] had an IC50 of 473 nM.

In turn, `Cc1cc(CNS(=O)(=O)C2CC2)ccc1Nc1nc(Nc2ccc(N3CCN(C)CC3)c(C)c2)ncc1Cl` [II-153, 5-Chloro-N4-[2-methyl-4-(N-cyclopropylsulfonylamino)methylphenyl]-N2-[3-methyl-4-(4-methyl-1-piperazinyl)phenyl]-2,4-pyrimidinediamine] displayed an IC50 of 3330 nM.

With `CN1CCN(c2ccc(Nc3nccc(Nc4cccc(S(=O)(=O)NC(C)(C)C)c4)n3)cc2)CC1` [I-19, N4-[3-(N-tert-butylsulfonyl)phenyl]-N2-[4-(4-methylpiperazine)-phenyl]-2,4-pyrimidinediamine], the half-maximal inhibitory concentration (IC50) is 603 nM.

`CCCOc1c(C)cc(Nc2ncc(Cl)c(Nc3ccc(CNS(=O)(=O)NC4CC4)cc3C)n2)cc1C` [II-178, 5-Chloro-N2-(3,5-dimethyl-4-propoxyphenyl)-N4-[2-methyl-4-((N-cyclopropylamino)sulfonylamino)methylphenyl]-2,4-pyrimidinediamine] returned a 50% inhibitory concentration (IC50) of 428 nM.

Consider `CCNS(=O)(=O)NCc1cccc(Nc2nc(Nc3cc(C)c(OCC)c(C)c3)ncc2C)c1` [II-134, N2-(3,5-Dimethyl-4-ethoxyphenyl)-N4-[(3-(ethylamino)sulfonylamino)methylphenyl]-5-methyl-2,4-pyrimidinediamine], for which it took 231 nM to reach half-maximal inhibition (IC50).

Regarding `CCc1cnc(Nc2ccc(N3CCN(C)CC3)cc2)nc1Nc1ccc(CNS(=O)(=O)C2CC2)cc1` [II-86, N4-[4-(N-Cyclopropylsulfonylamino)methylphenyl]-5-ethyl-N2-[4-(4-methyl-1-piperazinyl)phenyl]-2,4-pyrimidinediamine], 724 nM corresponded to half-maximal inhibition (IC50).

As for “5-Chloro-N2-[3,4-dimethyl-4-(2-(4-morpholinyl)ethoxy)phenyl]-N4-[4-((N-cyclopropylamino)sulfonylamino)methylphenyl]-2,4-pyrimidinediamine [II-170]”, the IC50 turned out to be 40.2 nM.

Compound `CCNS(=O)(=O)NCc1cccc(Nc2nc(Nc3ccc(N4CCN(C)CC4)c(C)c3)ncc2C)c1` [II-136, N4-[3-((Ethylamino)sulfonylamino)methylphenyl]-5-methyl-N2-[3-methyl-4-(4-methyl-1-piperazinyl)phenyl]-2,4-pyrimidinediamine] yielded a concentration for half-maximal inhibition (IC50) of 2140 nM.

Compound `CCNS(=O)(=O)NCc1ccc(Nc2nc(Nc3cc(C)c(OC)c(OC)c3)ncc2C)cc1` [II-117, N2-(3,4-Dimethoxy-5-methylphenyl)-N4-[(4-(ethylamino)sulfonylamino)methylphenyl]-5-methyl-2,4-pyrimidinediamine] registered a concentration for half-maximal inhibition (IC50) of 208 nM.

`CCOc1c(C)cc(Nc2ncc(Cl)c(Nc3ccc(CNS(=O)(=O)C4CC4)cc3C)n2)cc1C` [II-151, 5-Chloro-N2-(3,5-dimethyl-4-ethoxyphenyl)-N4-[2-methyl-4-(N-cyclopropylsulfonylamino)methylphenyl]-2,4-pyrimidinediamine] displayed an IC50 of 398 nM.

As to `Cc1cnc(Nc2ccc(S(=O)(=O)C(F)(F)F)cc2)nc1Nc1ccc(CCNS(=O)(=O)C2CC2)cc1` [II-59], it took 3140 nM to reach half-maximal inhibition (IC50).

On to `CCCN1CCN(c2ccc(Nc3ncc(C)c(Nc4ccc(CCNS(=O)(=O)C5CC5)cc4)n3)c(C(F)(F)F)c2)CC1` [II-71], for which 1400 nM corresponded to half-maximal inhibition (IC50).

The compound `CCNS(=O)(=O)NCc1ccc(Nc2nc(Nc3ccc(N4CCN(CC)CC4)cc3)ncc2C)cc1` [II-125, N4-[(4-(ethylamino)sulfonylamino)methylphenyl]-N2-[4-(4-ethyl-1-piperazinyl)phenyl]-5-methyl-2,4-pyrimidinediamine] returned a concentration for half-maximal inhibition (IC50) of 512 nM.

`COc1c(C)cc(Nc2ncc(C)c(Nc3ccc(CNS(=O)(=O)N(C)C)cc3)n2)cc1C` [II-99, 4-[(4-(Dimethylamino)sulfonylamino)methylphenyl]-N2-(3,5-dimethyl-4-methoxyphenyl)-5-methyl-2,4-pyrimidinediamine]: the IC50 came to 103 nM.

With `CCNS(=O)(=O)NCc1ccc(Nc2nc(Nc3ccc(N4CCN(C)CC4)cc3)ncc2C)cc1` [II-122, N4-[(4-(Ethylamino)sulfonylamino)methylphenyl]-5-methyl-N2-[4-(4-methyl-1-piperazinyl)phenyl]-2,4-pyrimidinediamine], the midpoint of inhibition, the IC50, lay at 276 nM.

As for “5-Chloro-N4-[4-(N-cyclopropyl-N-acetylsulfonylamino)methylphenyl]-N2-[3,4-dimethyl-5-methoxyphenyl]-2,4-pyrimidinediamine [II-217]”, the midpoint of inhibition, the IC50, lay at 233 nM.

In turn, `Cc1cnc(Nc2ccc(N3CCC(F)(F)CC3)cc2)nc1Nc1ccc(CNS(=O)(=O)N(C)C)cc1` [II-105, N4-[(4-(Dimethylamino)sulfonylamino)methylphenyl]-N2-[4-(4,4-difluoro-1-piperidinyl)phenyl]-5-methyl-2,4-pyrimidinediamine] registered an IC50 of 20300 nM.

Compound `CCNS(=O)(=O)NCc1cccc(Nc2nc(Nc3cc(C)c(OC)c(C)c3)ncc2C)c1` [II-133, N2-(3,5-Dimethyl-4-methoxyphenyl)-N4-[(3-(ethylamino)sulfonylamino)methylphenyl]-5-methyl-2,4-pyrimidinediamine] displayed an IC50 of 209 nM.
